# Where a name gives a salt, the structure may show the parent alone.
# How the values were obtained:
# [1] = test system: ptosis induced by tetrabenazine; test: Ptosis induced by tetrabenazine; type: in vivo; conditions: for Ptosis score: tetrabenazine 40 mg/kg i.p., 3 hrs, Mean ± S.E., N 6; for effects of erythro-DOPS on combination use of a peripheral decarboxylase inhibitor: combination with erythro-DOPS
# Experimental: L-threo-DOPS (100 mg/kg and 200 mg/kg) was intraperitoneally injected at the same time with the intraperitoneal injection of tetrabenazine (40 mg/kg) and at 1 hr. after the intraperitoneal injection of benserazide or carbidopa.
# The score of ptosis was measured by the method of Fukushima et al. (Arch. Int. Pharmacodyn. Therp. 229 163 1977) at 3 hrs. after the injection of tetrabenazine.
# [2] = test system: aromatic L-amino acid decarboxylase; conditions: decarboxylation by aromatic L-amino acid decarboxylase; cited from earlier work
# [3] = test system: quantity of spontaneous movement of mice administered with tranylcypromine; test: Spontaneous movement of mice administered with tranylcypromine; type: in vivo
# Experimental: The same experimental system of measuring the quantity of spontaneous movement of mice as used in Experimental Example 1 was used in this Example.
# In FIG. 3, the axis of ordinates indicates the quantity of spontaneous movement and the axis of abscissae indicates the lapse of time (minute) and the arrows indicate the time when administration was conducted.
# [4] = test system: quantity of spontaneous movement of mice increased by administration of methamphetamine; test: Spontaneous movement of mice with methamphetamine; type: in vivo
# Experimental: The same experimental system of measuring spontaneous movement quantity of mice as used in Experimental Example 1 was employed in this Example.
# In FIG. 2, the axis of ordinates indicates the quantity of spontaneous movement and the axis of abscissa indicates the time (minute) when the time at which the administration of methamphetamine (1.4 mg/kg) alone or methamphetamine with DL-erythro-DOPS (200 mg/kg) was carried out was taken as zero point.
# [5] = test system: quantity of spontaneous movement of mice; test: Spontaneous movement of mice pretreated with PIH (Animex); type: in vivo
# Experimental: Three mice as one group were put in a movement measuring box of Animex and quantity of spontaneous movements of the mice were measured at given intervals of time.
# Thereafter, they gradually became calm and crouched after about 30-40 minutes resulting in much decrease in their spontaneous moving quantity. β-phenylisopropylhydrazine hydrochloride (Catron, trade name) (referred to as "PIH" hereinafter) which is a monoamine oxidase inhibitor (MAOI) was intraperitoneally administered to the mice in an amount of 50 mg/kg.
# Separately, 200 mg/kg of DL-erythro-DOPS was intraperitoneally injected to the mice and the effects thereof were examined.
# In FIG. 1 the axis of ordinates indicates the quantity of movement (counts/5 min.) and the axis of abscissae indicates the time (minute) from the beginning of measurement of the quantity of spontaneous movement which was after 30 minutes from administration of DL-erythro-DOPS.
# [6] = test system: Amine content in the brain; test: Amine content in the brain of mice administered with erythro-DOPS; type: in vivo; conditions: for Dopamine content in the brain / Serotonin content in the brain / Noradrenaline (NA) content in the brain: mean of three mice ±SD
# Experimental: PIH (50 mg/kg) was previously administered to mice and after lapse of 17 hours, physiological saline or DL-erythro-DOPS (200 mg/kg) was intraperitoneally injected to the mice.
# Amine content in the brain was measured after a lapse of 30 minutes from the injection.
# The content was expressed as ng/g wet weight and shown as mean value of the three mice±SD.
# [7] = animal experiments; U.S. Pat. No. 3,920,728; cited from earlier work
# [8] = Acute oral toxicity (LD50); conditions: mouse, in vivo
# [9] = test system: freezing phenomenon in parkinson's disease; conditions: UK Patent Publication No. 2106388; cited from earlier work
# [10] = test system: orthostatic hypotension; conditions: U.S. Pat. No. 4,330,558; cited from earlier work
# [11] = test system: harmaline induced tremor; conditions: Japanese Patent Publication No. 125630/1977; cited from earlier work
# [12] = major tranquilizers; cited from earlier work
# [13] = test system: Amine content in the brain; test: Amine content in the brain of PIH administered mice; type: in vivo; conditions: PIH 50 mg/kg i.p., 17 hours, mean of three mice ±SD
# Experimental: A physiological saline or PIH (50 mg/kg) was intraperitoneally injected to mice and content of amine in the brain was measured after 17 hours.
# The measurement was substantially in accordance with the method of Ogasawara et al (J. Chromatography 180, 119). The content was expressed as ng/g wet weight and shown as mean value of the three mice ±SD.
# [14] = test system: mania; conditions: cited from earlier work
# [15] = continuously in blood; cited from earlier work
# [16] = DL-erythro-DOPS given 180 minutes after tranylcypromine
# [17] = DL-erythro-DOPS 200 mg/kg i.p. together with methamphetamine 1.4 mg/kg
# [18] = PIH 50 mg/kg 17 hours before + DL-erythro-DOPS 200 mg/kg i.p., 30 minutes
# [19] = PIH 50 mg/kg i.p., 16 hours after administration
# [20] = PIH 50 mg/kg + physiological saline, 30 minutes after injection
compound,measurement,setting,value
"N[C@H](C(=O)O)[C@@H](O)c1ccc(O)c(O)c1 (racemic) [L-erythro-DOPS, L or DL-erythro-3-(3,4-dihydroxyphenyl)serine]",Ptosis score,[1]; 100 mg/kg i.p. alone,2.0 ± 0.4
same,Ptosis score,[1]; 200 mg/kg i.p. alone,2.3 ± 0.5
same,conversion to noradrenaline in vivo,[2],to d-NA
"N[C@H](C(=O)O)[C@@H](O)c1ccc(O)c(O)c1 (relative stereo) [DL-erythro-DOPS, DL-erythro-3-(3,4-dihydroxyphenyl)serine]",quantity of movement,[3]; [16],began to decrease
same,time after which the quantity of movement began to decrease,[3]; [16],about 20 minutes
same,duration of decrease in quantity of movement,"[3]; DL-erythro-DOPS given 180 minutes after tranylcypromine, then returned to original increased state",30 to 90 min
same,action of methamphetamine to increase the quantity of spontaneous movement,[4]; [17],retrained
same,increase of the quantity of movement,[4]; [17],not noticeable
same,quantity of spontaneous movement,"[5]; DL-erythro-DOPS 200 mg/kg i.p., mice pretreated with PIH (50 mg/kg)",conspicuous decrease in the quantity of spontaneous movement
same,Dopamine content in the brain,[6]; [18],895 ± 52 ng/g wet weight
same,Serotonin content in the brain,[6]; [18],821 ± 92 ng/g wet weight
same,Noradrenaline (NA) content in the brain,"[6]; PIH 50 mg/kg 17 hours before + DL-erythro-DOPS 200 mg/kg i.p., 30 minutes, *: P <0.005",1476 ± 105 ng/g wet weight
"N[C@H](C(=O)O)[C@@H](O)c1ccc(O)c(O)c1 (relative stereo) [erythro-DOPS, erythro-3-(3,4-dihydroxyphenyl)serine]",antihypertensive or antidepressive effect,[7],has an antihypertensive or antidepressive effect
same,ptosis induced by tetrabenazine,[1]; administration of erythro-DOPS,enhanced
same,suppression of psychomotor excitement,[5]; summary of Experimental Examples 1 to 3,suppresses psychomotor excitement
same,"change of contents of amines in the brain (NA, dopamine, serotonin)",[6]; Experimental Examples 4 and 5,only NA significantly increases
same,Toxicity,[8],extremely low
same,LD50,[8]; po,≥ 5000 mg/kg
N[C@H](C(=O)O)[C@H](O)c1ccc(O)c(O)c1 (relative stereo) [threo-DOPS],antihypertensive or antidepressive effect,[7],has an antihypertensive or antidepressive effect
same,treatment of freezing phenomenon in parkinson's disease,[9],clinically effective
same,treatment of orthostatic hypotension,[10],clinically effective
same,effect on harmaline induced tremor,[11],inhibitory effect
N[C@@H]1C[C@H]1c1ccccc1 (relative stereo) [tranylcyromine],spontaneous movement,[3]; 50 mg/kg i.p.,gradually increased
same,time to maximum spontaneous movement,"[3]; 50 mg/kg i.p., after administration, then maintained",120 min
CN(C)CCCN1c2ccccc2Sc2ccc(Cl)cc21 [Chloropromazine],tranquilizing effects,[12],strong tranquilizing effects
N[C@H](C(=O)O)C(O)c1ccc(O)c(O)c1 (stereo partly drawn) [L-DOPS],conversion to noradrenaline in vivo,[2],converted to noradrenaline
N[C@H](C(=O)O)[C@H](O)c1ccc(O)c(O)c1 [L-threo-DOPS],conversion to noradrenaline in vivo,[2],converted to l-NA
"CC(Cc1ccccc1)NN (stereo not drawn) [PIH, β-phenylisopropylhydrazine hydrochloride]",Dopamine content in the brain,[13]; **: P <0.05,1026 ± 122 ng/g wet weight
same,Noradrenaline (NA) content in the brain,[13]; *: P <0.005,1085 ± 79 ng/g wet weight
same,Serotonin content in the brain,[13]; *: P <0.005,1260 ± 39 ng/g wet weight
same,quantity of spontaneous movement,[5]; [19],tendencies of increase in the spontaneous movement quantity
same,time required before the mice became calm,[5]; [19],increase in time required before the mice became calm
same,Dopamine content in the brain,[6]; [20],941 ± 56 ng/g wet weight
same,Noradrenaline (NA) content in the brain,[6]; [20],832 ± 88 ng/g wet weight
same,Serotonin content in the brain,[6]; [20],942 ± 133 ng/g wet weight
NC(CO)C(=O)NNCc1ccc(O)c(O)c1O (stereo not drawn) [benserazide],effects of erythro-DOPS on combination use of a peripheral decarboxylase inhibitor,[1],significantly enhanced
NC(=O)N1c2ccccc2C=Cc2ccccc21 [carbamazepine],antimanic effect,"[14]; human, in vivo",has an antimanic effect
C[C@@](Cc1ccc(O)c(O)c1)(NN)C(=O)O [carbidopa],effects of erythro-DOPS on combination use of a peripheral decarboxylase inhibitor,[1],significantly enhanced
O=C(CCCN1CCC(O)(c2ccc(Cl)cc2)CC1)c1ccc(F)cc1 [haloperidol],tranquilizing effects,[12],strong tranquilizing effects
COc1ccc2c(c1)N(C[C@H](C)CN(C)C)c1ccccc1S2 [levomepromazine],tranquilizing effects,[12],strong tranquilizing effects
O=C(O)O [lithium carbonate],time before a noticeable effect,[14]; treatment with lithium carbonate,3 to 8 days
CN[C@@H](C)Cc1ccccc1 [methamphetamine],quantity of spontaneous movement,[4]; methamphetamine 1.4 mg/kg i.p.,abruptly increased
same,time to restoration to nearly the former state,[4]; methamphetamine 1.4 mg/kg i.p.,2 h
same,time after which quantity of spontaneous movement began to decrease,"[4]; methamphetamine 1.4 mg/kg i.p., from the injection",50 min
lithium,lithium concentration in blood at which lithium poisoning will occur,[15],≥ 2.0 mEq/l

# Source: US4529603A, “Pharmaceutical composition and method for treatment of psychomotor excitement” (priority 1983, dated 1985)
